US4725578A, “Compounds having therapeutic effect and the preparation thereof” (Tobishi Pharmaceutical Co., Ltd., priority 1986, dated 1988)

System: P-388 cells
Assay: Antineoplastic action against implanted P-388 cells (ip-ip), survival T/C
Assay type: in vivo, CDFl mice
Conditions: for T/C % (Treatment/Control %): Table 6, P388, intraperitoneal
Method: To the peritoneal cavity of each group of mice consisting of six CDFl mice per group, 10^6 /0.1 ml of P-388 cells or 10^5 /0.1 ml of L-1210 cells were implanted. […]
In the Table, the symbol T/C % means Treatment/Control %, that is the increase in life when the control is 100. […] This method is used in the screening of U.S. National Cancer Institute.
In Table 7, the symbol "i.P.-i.P." means that the tumor cells are implanted intraperitoneally and the compounds being tested are also administered intraperitoneally. The symbol "TR" is the therapeutic ratio obtained by dividing the dose which provides a maximum T/C value, by the dose which provides a minimum T/C value.

**Q.** What does the source list for `CCOc1ccc2cc1Oc1ccc(cc1)CC1C(=O)N(C)C(C2)C(=O)NC(C)C(=O)NC(C)C(=O)N(C)C(Cc2ccc(OC)cc2)C(=O)NC(C)C(=O)N1C` (stereo not shown) [Ex. 3]?
**A.** T/C % (Treatment/Control %) (dose 0.05 mg/kg): 137.3%; T/C % (Treatment/Control %) (dose 0.5 mg/kg): 165.4%; T/C % (Treatment/Control %) (dose 2 mg/kg): 162.2%

**Q.** `COc1ccc(CC2C(=O)NC(C)C(=O)N(C)C3Cc4ccc(cc4)Oc4cc(ccc4OC(C)C)CC(C(=O)NC(C)C(=O)NC(C)C(=O)N2C)N(C)C3=O)cc1` (stereo not shown) [Ex. 5] was tested. Which “T/C % (Treatment/Control %)” value (dose 0.05 mg/kg) did it give?
**A.** 142.4%

**Q.** And the “T/C % (Treatment/Control %)” value (dose 0.5 mg/kg)?
**A.** 175.1%

**Q.** What about the “T/C % (Treatment/Control %)” value (dose 2 mg/kg) of the same molecule?
**A.** 105.4%

**Q.** For `CCCCCOc1ccc2cc1Oc1ccc(cc1)CC1C(=O)N(C)C(C2)C(=O)NC(C)C(=O)NC(C)C(=O)N(C)C(Cc2ccc(OC)cc2)C(=O)NC(C)C(=O)N1C` (stereo not shown) [Ex. 7], which “T/C % (Treatment/Control %)” value (dose 0.05 mg/kg) is on record?
**A.** 122.2%

**Q.** What about the “T/C % (Treatment/Control %)” value (dose 0.5 mg/kg) of the same molecule?
**A.** 142.7%

**Q.** What about the “T/C % (Treatment/Control %)” value (dose 2 mg/kg) of the same molecule?
**A.** 165.4%

**Q.** `CCCCCCCOc1ccc2cc1Oc1ccc(cc1)CC1C(=O)N(C)C(C2)C(=O)NC(C)C(=O)NC(C)C(=O)N(C)C(Cc2ccc(OC)cc2)C(=O)NC(C)C(=O)N1C` (stereo not shown) [Ex. 8] was tested. Which “T/C % (Treatment/Control %)” value (dose 0.05 mg/kg) did it give?
**A.** 115.8%

**Q.** What about the “T/C % (Treatment/Control %)” value (dose 0.5 mg/kg) of the same molecule?
**A.** 144.7%

**Q.** What about the “T/C % (Treatment/Control %)” value (dose 2 mg/kg) of the same molecule?
**A.** 150.1%

**Q.** What about the “T/C % (Treatment/Control %)” value (dose 4 mg/kg) of the same molecule?
**A.** 164.0%

**Q.** What does the source list for `CCCCCCCCOc1ccc2cc1Oc1ccc(cc1)CC1C(=O)N(C)C(C2)C(=O)NC(C)C(=O)NC(C)C(=O)N(C)C(Cc2ccc(OC)cc2)C(=O)NC(C)C(=O)N1C` (stereo not shown) [Ex. 9]?
**A.** T/C % (Treatment/Control %) (dose 0.05 mg/kg): 136.1%; T/C % (Treatment/Control %) (dose 0.5 mg/kg): 146.8%; T/C % (Treatment/Control %) (dose 2 mg/kg): 162.9%; T/C % (Treatment/Control %) (dose 4 mg/kg): 152.2%

**Q.** For `CCCCCCCCCOc1ccc2cc1Oc1ccc(cc1)CC1C(=O)N(C)C(C2)C(=O)NC(C)C(=O)NC(C)C(=O)N(C)C(Cc2ccc(OC)cc2)C(=O)NC(C)C(=O)N1C` (stereo not shown) [Ex. 10], which “T/C % (Treatment/Control %)” value (dose 0.05 mg/kg) is on record?
**A.** 112.5%

**Q.** What about the “T/C % (Treatment/Control %)” value (dose 0.5 mg/kg) of the same molecule?
**A.** 141.5%

**Q.** What about the “T/C % (Treatment/Control %)” value (dose 2 mg/kg) of the same molecule?
**A.** 150.1%

**Q.** And the “T/C % (Treatment/Control %)” value (dose 4 mg/kg)?
**A.** 155.4%

**Q.** `CCOC(=O)CCCOc1ccc2cc1Oc1ccc(cc1)CC1C(=O)N(C)C(C2)C(=O)NC(C)C(=O)NC(C)C(=O)N(C)C(Cc2ccc(OC)cc2)C(=O)NC(C)C(=O)N1C` (stereo not shown) [Ex. 19(2), ethoxycarbonylpropylether (2) of TPC-A] was tested. Which “T/C % (Treatment/Control %)” value (dose 0.05 mg/kg) did it give?
**A.** 113.8%

**Q.** What about the “T/C % (Treatment/Control %)” value (dose 0.5 mg/kg) of the same molecule?
**A.** 139.6%

**Q.** What about the “T/C % (Treatment/Control %)” value (dose 2 mg/kg) of the same molecule?
**A.** 141.7%

**Q.** What about the “T/C % (Treatment/Control %)” value (dose 4 mg/kg) of the same molecule?
**A.** 153.1%

**Q.** Which results are given for `COc1ccc(CC2C(=O)NC(C)C(=O)N(C)C3Cc4ccc(cc4)Oc4cc(ccc4OC4CCCCO4)CC(C(=O)NC(C)C(=O)NC(C)C(=O)N2C)N(C)C3=O)cc1` (stereo not shown) [Ex. 20, tetrahydropyranylether of TPC-A]?
**A.** T/C % (Treatment/Control %) (dose 0.05 mg/kg): 138.4%; T/C % (Treatment/Control %) (dose 0.5 mg/kg): 164.3%; T/C % (Treatment/Control %) (dose 2 mg/kg): 121.1%

**Q.** For `CCC(=O)Oc1ccc2cc1Oc1ccc(cc1)CC1C(=O)N(C)C(C2)C(=O)NC(C)C(=O)NC(C)C(=O)N(C)C(Cc2ccc(OC)cc2)C(=O)NC(C)C(=O)N1C` (stereo not shown) [Ex. 23], which “T/C % (Treatment/Control %)” value (dose 0.05 mg/kg) is on record?
**A.** 129.0%

**Q.** What about the “T/C % (Treatment/Control %)” value (dose 0.5 mg/kg) of the same molecule?
**A.** 145.3%

**Q.** What about the “T/C % (Treatment/Control %)” value (dose 2 mg/kg) of the same molecule?
**A.** 164.4%

**Q.** What about the “T/C % (Treatment/Control %)” value (dose 10 mg/kg) of the same molecule?
**A.** 175.0%

**Q.** Which results are given for `CCCC(=O)Oc1ccc2cc1Oc1ccc(cc1)CC1C(=O)N(C)C(C2)C(=O)NC(C)C(=O)NC(C)C(=O)N(C)C(Cc2ccc(OC)cc2)C(=O)NC(C)C(=O)N1C` (stereo not shown) [Ex. 24]?
**A.** T/C % (Treatment/Control %) (dose 0.05 mg/kg): 125.1%; T/C % (Treatment/Control %) (dose 0.5 mg/kg): 144.2%; T/C % (Treatment/Control %) (dose 2 mg/kg): 155.9%; T/C % (Treatment/Control %) (dose 10 mg/kg): 170.0%

**Q.** How did the “T/C % (Treatment/Control %)” value (dose 0.05 mg/kg) turn out when `COc1ccc(CC2C(=O)NC(C)C(=O)N(C)C3Cc4ccc(cc4)Oc4cc(ccc4OC(=O)C(C)C)CC(C(=O)NC(C)C(=O)NC(C)C(=O)N2C)N(C)C3=O)cc1` (stereo not shown) [Ex. 25] was run?
**A.** 124.1%

**Q.** And the “T/C % (Treatment/Control %)” value (dose 0.5 mg/kg)?
**A.** 150.7%

**Q.** And the “T/C % (Treatment/Control %)” value (dose 2 mg/kg)?
**A.** 155.9%

**Q.** What about the “T/C % (Treatment/Control %)” value (dose 10 mg/kg) of the same molecule?
**A.** 183.5%

**Q.** How did the “T/C % (Treatment/Control %)” value (dose 0.05 mg/kg) turn out when `CC=CC(=O)Oc1ccc2cc1Oc1ccc(cc1)CC1C(=O)N(C)C(C2)C(=O)NC(C)C(=O)NC(C)C(=O)N(C)C(Cc2ccc(OC)cc2)C(=O)NC(C)C(=O)N1C` (stereo not shown) [Ex. 26] was run?
**A.** 124.1%

**Q.** And the “T/C % (Treatment/Control %)” value (dose 0.5 mg/kg)?
**A.** 148.5%

**Q.** What about the “T/C % (Treatment/Control %)” value (dose 2 mg/kg) of the same molecule?
**A.** 162.3%

**Q.** What about the “T/C % (Treatment/Control %)” value (dose 10 mg/kg) of the same molecule?
**A.** 186.6%

**Q.** What does the source list for `CCCCC(=O)Oc1ccc2cc1Oc1ccc(cc1)CC1C(=O)N(C)C(C2)C(=O)NC(C)C(=O)NC(C)C(=O)N(C)C(Cc2ccc(OC)cc2)C(=O)NC(C)C(=O)N1C` (stereo not shown) [Ex. 27]?
**A.** T/C % (Treatment/Control %) (dose 0.05 mg/kg): 117.9%; T/C % (Treatment/Control %) (dose 0.5 mg/kg): 149.5%; T/C % (Treatment/Control %) (dose 2 mg/kg): 157.9%; T/C % (Treatment/Control %) (dose 10 mg/kg): 171.6%

**Q.** Which “T/C % (Treatment/Control %)” value (dose 0.05 mg/kg) does the source give for `COc1ccc(CC2C(=O)NC(C)C(=O)N(C)C3Cc4ccc(cc4)Oc4cc(ccc4OC(=O)CCC(C)C)CC(C(=O)NC(C)C(=O)NC(C)C(=O)N2C)N(C)C3=O)cc1` (stereo not shown) [Ex. 40, 4-methyl valerate] here?
**A.** 111.6%

**Q.** What about the “T/C % (Treatment/Control %)” value (dose 0.5 mg/kg) of the same molecule?
**A.** 133.9%

**Q.** What about the “T/C % (Treatment/Control %)” value (dose 2 mg/kg) of the same molecule?
**A.** 152.1%

**Q.** What does the source list for `CCC(C)CC(=O)Oc1ccc2cc1Oc1ccc(cc1)CC1C(=O)N(C)C(C2)C(=O)NC(C)C(=O)NC(C)C(=O)N(C)C(Cc2ccc(OC)cc2)C(=O)NC(C)C(=O)N1C` (stereo not shown) [Ex. 42]?
**A.** T/C % (Treatment/Control %) (dose 0.05 mg/kg): 114.6%; T/C % (Treatment/Control %) (dose 0.5 mg/kg): 140.0%; T/C % (Treatment/Control %) (dose 2 mg/kg): 159.2%

**Q.** With `CCCC(C)C(=O)Oc1ccc2cc1Oc1ccc(cc1)CC1C(=O)N(C)C(C2)C(=O)NC(C)C(=O)NC(C)C(=O)N(C)C(Cc2ccc(OC)cc2)C(=O)NC(C)C(=O)N1C` (stereo not shown) [Ex. 43] as the molecule, how does the “T/C % (Treatment/Control %)” value (dose 0.05 mg/kg) read?
**A.** 116.6%

**Q.** And the “T/C % (Treatment/Control %)” value (dose 0.5 mg/kg)?
**A.** 142.0%

**Q.** What about the “T/C % (Treatment/Control %)” value (dose 2 mg/kg) of the same molecule?
**A.** 154.2%

**Q.** How did the “T/C % (Treatment/Control %)” value (dose 0.05 mg/kg) turn out when `CCCC=CC(=O)Oc1ccc2cc1Oc1ccc(cc1)CC1C(=O)N(C)C(C2)C(=O)NC(C)C(=O)NC(C)C(=O)N(C)C(Cc2ccc(OC)cc2)C(=O)NC(C)C(=O)N1C` (stereo not shown) [Ex. 44] was run?
**A.** 116.6%

**Q.** And the “T/C % (Treatment/Control %)” value (dose 0.5 mg/kg)?
**A.** 150.1%

**Q.** What about the “T/C % (Treatment/Control %)” value (dose 2 mg/kg) of the same molecule?
**A.** 165.3%

**Q.** With `CCC=CCC(=O)Oc1ccc2cc1Oc1ccc(cc1)CC1C(=O)N(C)C(C2)C(=O)NC(C)C(=O)NC(C)C(=O)N(C)C(Cc2ccc(OC)cc2)C(=O)NC(C)C(=O)N1C` (stereo not shown) [Ex. 45] as the molecule, how does the “T/C % (Treatment/Control %)” value (dose 0.05 mg/kg) read?
**A.** 121.7%

**Q.** And the “T/C % (Treatment/Control %)” value (dose 0.5 mg/kg)?
**A.** 145.0%

**Q.** What about the “T/C % (Treatment/Control %)” value (dose 2 mg/kg) of the same molecule?
**A.** 162.3%

**Q.** For `CO[C@@]12[C@H](COC(N)=O)C3=C(C(=O)C(C)=C(N)C3=O)N1C[C@@H]1N[C@@H]12` [Mitomycin, reference compound], which T/C (additional tests, P 388 (ip-ip), 0.5 mg/kg × 5, single agent) is on record?
**A.** 198.2%
